Several values for one entry are separate records, joined by “and”; a condition that tells them apart may be missing. Equal entries are not always repeated. Toxic doses and inconclusive results are not listed. Rule for the calls: active = survival T/C of 150% or more; inactive = T/C below 125% in these data.
System: P388 leukemia ip, CD2F1 mice, survival T/C
Assay: NCI In Vivo Anticancer Drug Screen. Data for tumor model P388 Leukemia (intraperitoneal) in CD2F1 (CDF1) mice
Details: endpoint: median survival time, higher = longer survival
How it was run: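 Mice carrying the transplanted tumor received test compound or vehicle. Survival was recorded in each group, and the value is the treated-group measurement divided by that of the vehicle-treated control group.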

[1] = dose: 50.0 mg/kg/injection, schedule: Q01DX009 (ip), vehicle: saline with Tween-80
[2] = dose: 100.0 mg/kg/injection, schedule: Q01DX009 (ip), vehicle: saline with Tween-80
[3] = dose: 200.0 mg/kg/injection, schedule: Q01DX009 (ip), vehicle: saline with Tween-80
[4] = dose: 400.0 mg/kg/injection, schedule: Q01DX009 (ip), vehicle: saline with Tween-80
[5] = dose: 60.0 mg/kg/injection, schedule: Q01DX005 (ip), vehicle: saline with Tween-80
[6] = dose: 120.0 mg/kg/injection, schedule: Q01DX005 (ip), vehicle: saline with Tween-80
[7] = dose: 100.0 mg/kg/injection, schedule: Q04DX002 (ip), vehicle: saline with Tween-80
[8] = dose: 200.0 mg/kg/injection, schedule: Q04DX002 (ip), vehicle: saline with Tween-80
[9] = dose: 200.0 mg/kg/injection, schedule: Q01DX009 (ip), vehicle: saline
[10] = dose: 25.0 mg/kg/injection, schedule: Q01DX009 (ip), vehicle: saline with Tween-80
[11] = dose: 50.0 mg/kg/injection, schedule: Q01DX009 (ip), vehicle: saline

Measured: T/C

CSCCC1NC(=O)C(C(C)=Nc2ccccc2)=C1O (stereo unspecified)
inactive: [1] 94 % of control | [2] 92 % of control | [3] 98 % of control | [4] 99 % of control

Oc1cc(Br)ccc1/C=N/Nc1ccccn1
inactive: [5] 90 % of control | [6] 96 % of control | dose: 240.0 mg/kg/injection, schedule: Q01DX005 (ip), vehicle: saline with Tween-80 101 % of control

[Ni+2].[O-]c1ccccc1C=NCCCCCCN=Cc1ccccc1[O-]
inactive: dose: 50.0 mg/kg/injection, schedule: Q04DX002 (ip), vehicle: saline with Tween-80 94 % of control | [7] 93 % of control | [8] 93 % of control

CN(C)B(N(C)C)N(C)C
inactive: [5] 101 % of control | [6] 102 % of control

CC(=O)N([Si](C)(C)C)[Si](C)(C)C
inactive: dose: 6.25 mg/kg/injection, schedule: Q01DX009 (ip), vehicle: saline 88 % of control and 96 % of control | dose: 12.5 mg/kg/injection, schedule: Q01DX009 (ip), vehicle: saline 100 % of control and 109 % of control and 86 % of control | dose: 25.0 mg/kg/injection, schedule: Q01DX009 (ip), vehicle: saline 101 % of control and 86 % of control and 93 % of control | [9] 100 % of control

N=C(N)S(=O)O
inactive: [10] 99 % of control | [1] 100 % of control | [11] 96 % of control | [2] 98 % of control | [3] 101 % of control | [9] 95 % of control

O=C/C=C/n1ccccc1=S
inactive: dose: 10.0 mg/kg/injection, schedule: Q01DX001 (ip), vehicle: Klucel (hydroxypropylcellulose) (HPC) 109 % of control | dose: 20.0 mg/kg/injection, schedule: Q01DX001 (ip), vehicle: Klucel (hydroxypropylcellulose) (HPC) 102 % of control

CC1(C)OP(=O)(O)C=C1Br
inactive: [11] 103 % of control | dose: 100.0 mg/kg/injection, schedule: Q01DX009 (ip), vehicle: saline 107 % of control | [9] 93 % of control

CC(=O)OC(C)(C)/N=N/C(C)(C)OC(C)=O
inactive: [10] 103 % of control | [1] 101 % of control | [2] 111 % of control | [3] 100 % of control

CC(C)C(Sc1nc(N)nc2nc[nH]c12)C(=O)O (stereo unspecified)
inactive: [2] 95 % of control | dose: 100.0 mg/kg/injection, schedule: Q04DX003 (ip), vehicle: saline with Tween-80 95 % of control | [3] 100 % of control | dose: 200.0 mg/kg/injection, schedule: Q04DX003 (ip), vehicle: saline with Tween-80 100 % of control | [4] 104 % of control | dose: 400.0 mg/kg/injection, schedule: Q04DX003 (ip), vehicle: saline with Tween-80 95 % of control

CCOC(=O)C1(Br)CC2(C1)CC(Br)(C(=O)OCC)C2 (stereo unspecified)
inactive: [7] 101 % of control | [8] 103 % of control | dose: 400.0 mg/kg/injection, schedule: Q04DX002 (ip), vehicle: saline with Tween-80 100 % of control

O=c1[nH]nc(/C=C/C=C/c2ccccc2)c(=O)[nH]1
inactive: dose: 100.0 mg/kg/injection, schedule: Q01DX001 (ip), vehicle: saline 97 % of control | dose: 200.0 mg/kg/injection, schedule: Q01DX001 (ip), vehicle: saline 101 % of control | dose: 400.0 mg/kg/injection, schedule: Q01DX001 (ip), vehicle: saline 90 % of control

CC(C)(NC(=O)OCc1ccccc1)C(=O)n1cc(CC(C(=O)OCc2ccccc2)n2cnc3ccccc3c2=O)c2ccccc21 (stereo unspecified)
inactive: dose: 8.75 mg/kg/injection, schedule: Q01DX005 (ip), vehicle: Klucel (hydroxypropylcellulose) (HPC) 96 % of control | dose: 17.5 mg/kg/injection, schedule: Q01DX005 (ip), vehicle: Klucel (hydroxypropylcellulose) (HPC) 100 % of control | dose: 35.0 mg/kg/injection, schedule: Q01DX005 (ip), vehicle: Klucel (hydroxypropylcellulose) (HPC) 99 % of control
